Laboratory results taken from patent US20130065897A1, “COMPOUNDS, PREPARATION AND USES THEREOF” (PETER MACCALLUM CANCER INSTITUTE, priority 2009, published 2013).
Where two headings read alike, the source gives them in different places.

Experiments:
recombinant perforin = recombinant perforin (UniProt P10820); format: cell-based
Description: Inhibition of Perforin-Mediated Lysis of Jurkat Cells
The ability of the compounds to inhibit the lysis of nucleated (Jurkat T lymphoma) cells in the presence of 0.1% BSA, as measured by release of ^51Cr was measured. Jurkat target cells were labelled by incubation in medium with 100 μCi ^51Cr for one hour. The cells were then washed three times to remove unincorporated isotope and re-suspended at 1×10^5 cells per mL in RPMI buffer supplemented with 0.1% BSA. […] The supernatant was collected and assessed for its radioactive content on a gamma counter (Wallac Wizard 1470 automatic gamma counter). Each data point was performed in triplicate and an IC50 was calculated from the range of concentrations described to above.

[1] = tested on: KHYG-1 NK cell-mediated lysis of K562 cells; assay: Inhibition of KHYG-1 NK cell-mediated lysis of K562 cells (51Cr release); format: cell-based; conditions: K562 target cells, Effector:Target 2:1, 4 hours 37° C.
Description: Inhibition of KHYG-1 NK Cell-Mediated lysis of K562 Cells
KHYG-1 cells were washed and resuspended in RPMI+0.1% BSA at 4×10^5 cells/ml and 50 μl of KHYG-1 cells were dispensed to each well of a 96-well V-bottom, plate. Test compounds were added to KHYG-1 cells at various concentrations up to 20 μM and incubated at RT for 20 minutes. 1×10^6 K562 target cells were labelled with 75 μCi ^51Cr in 200 μl RPMI for 90 mins at 37° C., cells were washed as described above and resuspended in 5 ml RPMI+0.1% BSA. 50 μl of ^51Cr labelled K562 leukemia target cells were added to each well of the KHYG-1 plate (Effector:Target 2:1) and incubated at 37° C. for 4 hours. ^51Cr release was assayed using a Skatron Harvesting Press and radioactivity estimated on a Wallac Wizard 1470 Automatic Gamma counter (Turku, Finland). The percentage of specific cytotoxicity was calculated by the formula: […]
and expressed as the mean of triplicate assays +/−standard error of the mean.

[2] = read-out: Jurkat IC50; recombinant perforin pre-incubated 30 min with compound; 51Cr-labelled Jurkat cells, 0.1% BSA, 37° C. 4 hours

Sequence of recombinant perforin (P10820 whole entry): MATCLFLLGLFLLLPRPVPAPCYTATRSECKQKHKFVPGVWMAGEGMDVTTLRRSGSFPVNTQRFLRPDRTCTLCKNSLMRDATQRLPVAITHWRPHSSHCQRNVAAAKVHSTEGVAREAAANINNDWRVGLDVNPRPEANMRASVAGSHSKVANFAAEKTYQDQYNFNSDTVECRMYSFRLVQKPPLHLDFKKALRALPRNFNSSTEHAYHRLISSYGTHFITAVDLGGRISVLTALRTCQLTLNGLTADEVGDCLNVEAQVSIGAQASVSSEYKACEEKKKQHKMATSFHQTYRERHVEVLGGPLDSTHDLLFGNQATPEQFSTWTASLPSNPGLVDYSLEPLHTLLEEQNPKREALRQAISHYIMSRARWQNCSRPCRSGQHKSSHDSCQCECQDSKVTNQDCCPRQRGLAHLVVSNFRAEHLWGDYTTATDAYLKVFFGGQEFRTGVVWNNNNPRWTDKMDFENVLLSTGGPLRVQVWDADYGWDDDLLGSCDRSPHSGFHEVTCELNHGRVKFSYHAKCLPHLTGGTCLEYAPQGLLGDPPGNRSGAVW

SMILES	IC50 (recombinant perforin; recombinant perforin pre-incubated 30 min with compound; 51Cr-labelled Jurkat cells, 0.1% BSA, 37° C. 4 hours; read-out: Jurkat IC50)	IC50 (recombinant perforin; [2])	inhibition at 20 µM [1]
O=C1NC(=S)N/C1=C/c1ccc(-c2ccc3c(c2)COC3=O)cn1 [Cmpd 7]	2 µM		
COC(=O)c1ccc(-c2ccc(/C=C3/NC(=S)NC3=O)s2)cc1C [Cmpd 21, (E,Z)-Methyl 2-methyl-4-(5-((5-oxo-2-thioxoimidazolidin-4-ylidene)methyl)thiophen-2-yl)benzoate]		3.03 µM	92%
O=C1NC(=S)N/C1=C/c1ccc(-c2ccncc2)s1 [Cmpd 25, (E,Z)-5-((5-(Pyridin-4-yl)thiophen-2-yl)methylene)-2-thioxoimidazolidin-4-one]		10.1 µM	
CS(=O)(=O)c1ccc(-c2ccc(/C=C3/NC(=S)NC3=O)s2)cc1 [Cmpd 28, (E,Z)-5-((5-(4-(Methylsulfonyl)phenyl)thiophen-2-yl)methylene)-2-thioxoimidazolidin-4-one]		13.8 µM	
O=C1NC(=S)N/C1=C/c1ccc(-c2ccc(F)cc2)s1 [Cmpd 29, (E,Z)-5-((5-(4-Fluorophenyl)thiophen-2-yl)methylene)-2-thioxoimidazolidin-4-one]		6.69 µM	
O=C1NC(=S)N/C1=C/c1ccc(-c2ccc(F)c(F)c2)s1 [Cmpd 30, (E,Z)-5-((5-(3,4-Difluorophenyl)thiophen-2-yl)methylene)-2-thioxoimidazolidin-4-one]		4.59 µM	
O=C1NC(=S)N/C1=C/c1ccc(-c2cccc(F)c2)s1 [Cmpd 31, (E,Z)-5-((5-(3-Fluorophenyl)thiophen-2-yl)methylene)-2-thioxoimidazolidin-4-one]		10.8 µM	
CS(=O)(=O)Nc1ccc(-c2ccc(/C=C3/NC(=S)NC3=O)s2)cc1 [Cmpd 33, (E,Z)-N-(4-(5-((5-Oxo-2-thioxoimidazolidin-4-ylidene)methyl)thiophen-2-yl)phenyl)methanesulfonamide]		7.7 µM	32%
O=C1NC(=S)N/C1=C/c1ccc(-c2ccc(C(=O)NCCO)cc2)s1 [Cmpd 42, (E,Z)-N-(2-Hydroxyethyl)-4-(5-((5-oxo-2-thioxoimidazolidin-4-ylidene)methyl)thiophen-2-yl)benzamide]		3.64 µM	42%
O=C1NC(=S)N/C1=C/c1ccc(-c2ccc(C(=O)NCCCO)cc2)s1 [Cmpd 44, (E,Z)-N-(3-Hydroxypropyl)-4-(5-((5-oxo-2-thioxoimidazolidin-4-ylidene)methyl)thiophen-2-yl)benzamide]		4.35 µM	52%
O=C1NC(=S)NC1=Cc1ccc(-c2ccc3c(c2)CNC3=O)cc1 [Cmpd 48, (E,Z)-5-(4-((5-Oxo-2-thioxoimidazolidin-4-ylidene)methyl)phenyl)isoindolin-1-one]		5.55 µM	16%
O=C1NC(=S)N/C1=C/c1ccc(-c2ccc3c(c2)CN(CC(O)CO)C3=O)s1 (stereo not shown) [Cmpd 78, (E,Z)-2-(2,3-Dihydroxypropyl)-5-(5-((5-oxo-2-thioxoimidazolidin-4-ylidene)methyl)thiophen-2-yl)isoindolin-1-one]		1.26 µM	19%
CN1CCc2ccc(-c3ccc(/C=C4\NC(=S)NC4=O)s3)cc2C1=O [Cmpd 83, (E,Z)-2-Methyl-7-(5-((5-oxo-2-thioxoimidazolidin-4-ylidene)methyl)thiophen-2-yl)-3,4-dihydroisoquinolin-1(2H)-one]		4.76 µM	91%
CN1CCc2cc(-c3ccc(/C=C4\NC(=S)NC4=O)s3)ccc2C1=O [Cmpd 84, (E,Z)-2-Methyl-6-(5-((5-oxo-2-thioxoimidazolidin-4-ylidene)methyl)thiophen-2-yl)-3,4-dihydroisoquinolin-1(2H)-one]		2.33 µM	72%
